Results on 8 molecules are retold here after ChEMBL document CHEMBL5230143, “Inhibitors of gelatinases (MMP-2 and MMP-9) for the management of hematological malignancies” (Eur J Med Chem, 2021).

One data set has as its target Stromelysin-1 (Homo sapiens, UniProt P08254). The data set is described as follows: Inhibition of human recombinant MMP-3 assessed as inhibition constant.
For a further data set, the system named is U-937. Kind of data set: Cytotoxicity against human U-937 cells incubated for 48 hrs by MTT assay. The format is functional, cell-based. Particulars: U-937, 48 h. For orientation: Tetrazolium dyes change colour on reduction, which living cells bring about.
Data set [1] relates to Jurkat E6.1. Kind of data set: Induction of apoptosis in human Jurkat E6.1 assessed as reduction in HDAC-8 expression at 10 uM measured after 48 hrs by annexin V-FITC/propidium iodide staining based flow cytometry analysis relative to control. It is filed as functional. Details: scale not given: the % may be the effect or the level left. (A flow cytometer gives signals particle by particle.)

The subject of data set [2] is Jurkat E6.1. The data set is described as follows: Induction of apoptosis in human Jurkat E6.1 assessed as reduction in HDAC-8 expression at 20 uM measured after 48 hrs by annexin V-FITC/propidium iodide staining based flow cytometry analysis relative to control. The format is functional. Details: scale not given: the % may be the effect or the level left.
In data set [3] the test system is Jurkat E6.1. Kind of data set: Cytotoxicity against human Jurkat E6.1 cells incubated for 48 hrs by MTT assay. The format is functional, cell-based. Particulars: Jurkat E6.1, 48 h.
For data set [4], the system named is Jurkat E6.1. Kind of data set: Induction of apoptosis in human Jurkat E6.1 assessed as reduction in MMP-2 expression at 10 uM measured after 48 hrs by annexin V-FITC/propidium iodide staining based flow cytometry analysis relative to control. It is filed as functional. Also noted: scale not given: the % may be the effect or the level left.
For a further data set, the system named is MOLT-4. The data set is described as follows: Cytotoxicity against human MOLT-4 cells incubated for 48 hrs by MTT assay. It is filed as functional, cell-based. Particulars: MOLT-4, 48 h.
In data set [5] the test system is Jurkat E6.1. Kind of data set: Induction of apoptosis in human Jurkat E6.1 assessed as reduction in MMP-2 expression at 20 uM measured after 48 hrs by annexin V-FITC/propidium iodide staining based flow cytometry analysis relative to control. The format is functional. Details: scale not given: the % may be the effect or the level left.
The target of data set [6] is T1, Interstitial collagenase (Homo sapiens, UniProt P03956).
T1 sequence (P03956 whole entry): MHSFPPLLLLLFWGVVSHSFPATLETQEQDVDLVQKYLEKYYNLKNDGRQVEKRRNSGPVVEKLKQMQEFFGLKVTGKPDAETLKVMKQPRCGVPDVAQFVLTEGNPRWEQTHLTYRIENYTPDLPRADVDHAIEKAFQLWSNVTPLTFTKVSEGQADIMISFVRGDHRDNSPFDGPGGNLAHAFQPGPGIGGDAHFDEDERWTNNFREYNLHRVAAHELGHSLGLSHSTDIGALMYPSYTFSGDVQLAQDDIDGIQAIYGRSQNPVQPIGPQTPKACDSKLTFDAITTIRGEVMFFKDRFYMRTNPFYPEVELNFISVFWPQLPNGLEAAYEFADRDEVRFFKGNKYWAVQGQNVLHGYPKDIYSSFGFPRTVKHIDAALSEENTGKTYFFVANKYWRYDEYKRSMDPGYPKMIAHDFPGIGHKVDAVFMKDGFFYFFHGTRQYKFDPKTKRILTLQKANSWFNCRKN
The data set is described as follows: Inhibition of MMP-1 (unknown origin) assessed as inhibition constant.

Data set [7] concerns the target T2, Matrix metalloproteinase-9 (Homo sapiens, UniProt P14780). The data set is described as follows: Inhibition of MMP-9 (unknown origin) assessed as inhibition constant.
Data set [8] concerns the target T3, Neutrophil collagenase (Homo sapiens, UniProt P22894). The data set is described as follows: Inhibition of MMP-8 (unknown origin) assessed as inhibition constant.
Data set [9] has as its target T4, 72 kDa type IV collagenase (Homo sapiens, UniProt P08253). The data set is described as follows: Inhibition of MMP-2 (unknown origin) assessed as inhibition constant.
A further data set is described as follows: physchem. Conditions: water.
For data set [10], the target named is T3, Neutrophil collagenase. Kind of data set: Inhibition of MMP-8 (unknown origin).
For data set [11], the target named is Macrophage metalloelastase (Homo sapiens, UniProt P39900). Kind of data set: Inhibition of MMP-12 (unknown origin).
Macrophage metalloelastase, sequence (P39900 whole entry): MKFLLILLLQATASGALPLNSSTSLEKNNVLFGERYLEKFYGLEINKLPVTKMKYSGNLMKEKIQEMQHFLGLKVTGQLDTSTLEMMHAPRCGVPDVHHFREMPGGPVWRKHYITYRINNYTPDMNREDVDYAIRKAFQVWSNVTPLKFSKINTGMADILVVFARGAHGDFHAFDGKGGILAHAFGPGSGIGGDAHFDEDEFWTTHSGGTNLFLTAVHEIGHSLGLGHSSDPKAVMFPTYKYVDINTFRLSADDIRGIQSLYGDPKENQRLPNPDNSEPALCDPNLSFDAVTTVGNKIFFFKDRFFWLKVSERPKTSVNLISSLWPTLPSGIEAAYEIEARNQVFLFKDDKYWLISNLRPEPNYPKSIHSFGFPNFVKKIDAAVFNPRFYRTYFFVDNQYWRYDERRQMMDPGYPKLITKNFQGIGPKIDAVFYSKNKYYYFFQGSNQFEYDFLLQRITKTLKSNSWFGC
Data set [12] deals with Jurkat E6.1. The data set is described as follows: Induction of apoptosis in human Jurkat E6.1 assessed as reduction in HDAC-8 expression at 5 uM measured after 48 hrs by annexin V-FITC/propidium iodide staining based flow cytometry analysis relative to control. The format is functional. Also noted: scale not given: the % may be the effect or the level left.
For data set [13], the system named is Jurkat E6.1. The data set is described as follows: Induction of apoptosis in human Jurkat E6.1 assessed as reduction in MMP-2 expression at 5 uM measured after 48 hrs by annexin V-FITC/propidium iodide staining based flow cytometry analysis relative to control. It is filed as functional. Details: scale not given: the % may be the effect or the level left.
The target of data set [14] is T2, Matrix metalloproteinase-9. Kind of data set: Inhibition of MMP-9 (unknown origin).
In data set [15] the target is T1, Interstitial collagenase. The data set is described as follows: Inhibition of MMP-1 (unknown origin).
Data set [16] relates to Jurkat E6.1. The data set is described as follows: Induction of apoptosis in human Jurkat E6.1 assessed as reduction in HDAC-8 expression at 2 uM measured after 48 hrs by annexin V-FITC/propidium iodide staining based flow cytometry analysis relative to control. It is filed as functional. Also noted: scale not given: the % may be the effect or the level left.
Another data set addresses T5, Histone deacetylase 8 (Homo sapiens, UniProt Q9BY41).
T5 sequence (Q9BY41 whole entry): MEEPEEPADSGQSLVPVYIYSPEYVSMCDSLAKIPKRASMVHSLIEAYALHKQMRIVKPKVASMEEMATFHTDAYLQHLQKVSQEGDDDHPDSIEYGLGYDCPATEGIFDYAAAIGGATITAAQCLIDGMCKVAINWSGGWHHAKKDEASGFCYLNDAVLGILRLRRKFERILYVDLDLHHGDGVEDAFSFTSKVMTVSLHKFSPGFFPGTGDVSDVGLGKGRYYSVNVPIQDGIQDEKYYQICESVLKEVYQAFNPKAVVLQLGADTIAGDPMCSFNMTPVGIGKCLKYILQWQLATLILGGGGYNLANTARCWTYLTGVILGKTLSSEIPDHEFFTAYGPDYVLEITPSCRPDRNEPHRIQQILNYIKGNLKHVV
Kind of data set: Inhibition of HDAC-8 (unknown origin).

Data set [17] relates to Jurkat E6.1. Kind of data set: Induction of apoptosis in human Jurkat E6.1 assessed as reduction in MMP-2 expression at 2 uM measured after 48 hrs by annexin V-FITC/propidium iodide staining based flow cytometry analysis relative to control. It is filed as functional. Details: scale not given: the % may be the effect or the level left.
Data set [18] addresses T4, 72 kDa type IV collagenase. Kind of data set: Inhibition of MMP-2 (unknown origin).
The target of data set [19] is Matrix metalloproteinase-14 (Homo sapiens, UniProt P50281). The data set is described as follows: Inhibition of MMP-14 (unknown origin).
Another data set deals with T6, Matrilysin (Homo sapiens, UniProt P09237).
T6 sequence (P09237 whole entry): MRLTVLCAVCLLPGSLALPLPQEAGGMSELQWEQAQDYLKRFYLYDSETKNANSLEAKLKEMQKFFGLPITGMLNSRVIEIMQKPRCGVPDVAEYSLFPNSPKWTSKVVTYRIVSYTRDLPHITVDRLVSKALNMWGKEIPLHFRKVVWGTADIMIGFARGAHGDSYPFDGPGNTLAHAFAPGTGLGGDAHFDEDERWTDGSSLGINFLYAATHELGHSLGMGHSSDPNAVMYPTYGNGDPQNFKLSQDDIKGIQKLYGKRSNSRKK
Kind of data set: Inhibition of MMP-7 (unknown origin).

The target in data set [20] is T2, Matrix metalloproteinase-9. Kind of data set: Binding affinity to human MMP-9 assessed as residence time.

Where only a bound is given, the exact number is not on record here.

T2 sequence (P14780 whole entry): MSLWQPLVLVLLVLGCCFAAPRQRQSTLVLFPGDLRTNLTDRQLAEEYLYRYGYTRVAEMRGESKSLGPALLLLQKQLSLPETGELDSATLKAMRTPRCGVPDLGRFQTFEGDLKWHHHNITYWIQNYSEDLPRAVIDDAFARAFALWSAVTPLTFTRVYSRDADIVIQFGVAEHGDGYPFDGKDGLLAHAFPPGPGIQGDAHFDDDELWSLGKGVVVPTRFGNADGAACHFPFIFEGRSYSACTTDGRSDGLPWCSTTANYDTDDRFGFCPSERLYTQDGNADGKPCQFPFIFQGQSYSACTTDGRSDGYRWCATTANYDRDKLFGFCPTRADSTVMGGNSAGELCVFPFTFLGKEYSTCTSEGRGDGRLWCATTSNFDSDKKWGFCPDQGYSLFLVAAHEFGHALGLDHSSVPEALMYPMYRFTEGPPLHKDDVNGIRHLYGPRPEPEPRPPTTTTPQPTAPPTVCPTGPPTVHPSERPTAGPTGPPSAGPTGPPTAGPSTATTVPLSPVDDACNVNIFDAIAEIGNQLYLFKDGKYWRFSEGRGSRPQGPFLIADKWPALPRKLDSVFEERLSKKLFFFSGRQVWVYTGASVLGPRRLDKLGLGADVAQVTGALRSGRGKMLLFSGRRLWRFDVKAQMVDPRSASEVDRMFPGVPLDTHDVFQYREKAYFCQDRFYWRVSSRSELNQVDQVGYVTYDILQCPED
T4 sequence (P08253 whole entry): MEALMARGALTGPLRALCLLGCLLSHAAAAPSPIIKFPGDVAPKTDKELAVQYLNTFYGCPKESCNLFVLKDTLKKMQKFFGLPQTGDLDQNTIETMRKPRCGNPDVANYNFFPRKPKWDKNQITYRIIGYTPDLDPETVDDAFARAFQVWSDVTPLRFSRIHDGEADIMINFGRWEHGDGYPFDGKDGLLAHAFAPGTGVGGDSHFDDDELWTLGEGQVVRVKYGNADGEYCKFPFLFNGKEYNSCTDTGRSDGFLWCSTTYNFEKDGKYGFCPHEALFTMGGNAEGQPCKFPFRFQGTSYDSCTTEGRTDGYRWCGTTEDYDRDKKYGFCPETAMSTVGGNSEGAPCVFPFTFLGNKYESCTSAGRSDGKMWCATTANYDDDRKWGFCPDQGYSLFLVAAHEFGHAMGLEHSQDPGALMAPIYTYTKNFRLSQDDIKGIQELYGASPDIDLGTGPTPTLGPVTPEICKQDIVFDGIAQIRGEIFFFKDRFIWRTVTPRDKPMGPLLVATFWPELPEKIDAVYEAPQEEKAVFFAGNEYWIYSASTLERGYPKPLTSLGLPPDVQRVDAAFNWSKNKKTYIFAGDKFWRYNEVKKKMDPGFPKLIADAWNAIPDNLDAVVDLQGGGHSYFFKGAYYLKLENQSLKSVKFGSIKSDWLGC
T3 sequence (P22894 whole entry): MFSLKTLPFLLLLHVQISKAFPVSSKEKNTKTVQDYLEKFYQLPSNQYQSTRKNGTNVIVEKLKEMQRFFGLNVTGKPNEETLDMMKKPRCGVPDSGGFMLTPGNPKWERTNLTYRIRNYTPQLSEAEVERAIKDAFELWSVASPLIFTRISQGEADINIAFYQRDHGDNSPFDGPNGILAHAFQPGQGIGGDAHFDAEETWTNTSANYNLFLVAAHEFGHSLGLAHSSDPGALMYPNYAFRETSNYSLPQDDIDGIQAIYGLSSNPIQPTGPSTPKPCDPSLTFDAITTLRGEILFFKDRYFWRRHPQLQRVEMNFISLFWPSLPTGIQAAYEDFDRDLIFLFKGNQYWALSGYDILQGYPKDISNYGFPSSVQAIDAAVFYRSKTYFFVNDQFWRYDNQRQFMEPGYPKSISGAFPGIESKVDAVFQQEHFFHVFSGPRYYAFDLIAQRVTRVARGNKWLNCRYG
Stromelysin-1, sequence (P08254 whole entry): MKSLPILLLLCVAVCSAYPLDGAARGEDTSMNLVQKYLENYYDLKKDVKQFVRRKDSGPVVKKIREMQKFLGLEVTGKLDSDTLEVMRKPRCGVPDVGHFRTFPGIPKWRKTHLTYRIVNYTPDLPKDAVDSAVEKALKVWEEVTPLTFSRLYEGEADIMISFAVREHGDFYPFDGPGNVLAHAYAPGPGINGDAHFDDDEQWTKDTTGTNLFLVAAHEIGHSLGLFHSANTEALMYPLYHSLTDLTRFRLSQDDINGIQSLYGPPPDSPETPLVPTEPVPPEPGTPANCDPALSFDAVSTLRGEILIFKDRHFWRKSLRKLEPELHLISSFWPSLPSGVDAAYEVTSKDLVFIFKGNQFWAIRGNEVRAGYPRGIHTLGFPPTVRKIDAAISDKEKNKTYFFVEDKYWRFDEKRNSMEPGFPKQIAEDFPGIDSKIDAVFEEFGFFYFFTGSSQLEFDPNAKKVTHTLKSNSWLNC
Description for physchem: Solubility of the compound in water

For `COc1ccc(S(=O)(=O)N(Cc2ccccc2)[C@@H](C(=O)NO)C(C)C)cc1`, the Ki – broadly, a measure of affinity in units of concentration, obtained from inhibition or displacement – at Stromelysin-1 amounted to 0.043 µM.

Regarding `CC(C)NC(=O)C(CCC(=O)O)NC(=O)Cc1ccc(Cl)cc1` (stereo not drawn), the values for the IC50 with U-937, in the data set with Jurkat E6.1 [3] and in the data set on MOLT-4 were 29.4 µM, 11.5 µM and 11.8 µM, respectively. Besides, the Activity in the data set on Jurkat E6.1 [1] was determined as 32%; in the data set on Jurkat E6.1 [2], 58%; with Jurkat E6.1 [4] it was 42%; in the data set with Jurkat E6.1 [5], 58%.

Turning to `O=C(C[C@H](CSc1ccccc1)C(=O)O)c1ccc(-c2ccc(Cl)cc2)cc1` [TANOMASTAT], the Ki on Interstitial collagenase [6] was above 5 µM.

Regarding `CN1C(=O)N(C[C@H](C(=O)NO)[C@H](CC2CCCC2)C(=O)N2CCCCC2)C(=O)C1(C)C`, the inhibitory constant (Ki) turned out to be 0.059 µM in [7], 0.0044 µM on Neutrophil collagenase [8] and 0.154 µM in [9].

In the case of `N=C(N)NCCC[C@H](N)C(=O)Nc1ccc(Oc2ccc(S(=O)(=O)CC3CS3)cc2)cc1` (stereo partly drawn), the solubility – broadly, how much of the substance goes into solution per volume – in the data set “physchem” is above 10000 µg/mL.

Regarding `O=C(O)CCC(NC(=O)Cc1ccc(Br)cc1)C(=O)NCc1ccc([N+](=O)[O-])cc1` (stereo not drawn), the half-maximal inhibitory concentration (IC50) (as a rule, the concentration that gives 50% inhibition) against Neutrophil collagenase [10] was 206 µM; in data set [11], 138 µM; in the data set with U-937, 10.6 µM; in data set [14], 4.83 µM; against Interstitial collagenase [15], above 250 µM; at Histone deacetylase 8, 2.89 µM. For the same molecule, the IC50 came out at 2.77 µM in the data set on Jurkat E6.1 [3], 4.58 µM in the data set on MOLT-4, 6.4 µM in data set [18] and 56.3 µM in data set [19]. Besides, the Activity with Jurkat E6.1 [12] is on record as 68%; in the data set with Jurkat E6.1 [13], 70%; in the data set on Jurkat E6.1 [16], 48%; in the data set with Jurkat E6.1 [17] it was 46%.

Consider `CNC(=O)[C@@H](NC(=O)[C@H](CC(C)C)NC(=O)[C@@H](S)CCN1C(=O)N(C)C(C)(C)C1=O)C(C)(C)C` [REBIMASTAT], for which the IC50 was determined as 0.023 µM on Matrilysin; 0.027 µM in [14]; 0.009 µM against Interstitial collagenase [15]; 0.039 µM in [18]; 0.04 µM in data set [19].

For the molecule `O=S(=O)(CC1CS1)c1ccc(Oc2ccccc2)cc1` (stereo not drawn), the TIME in data set [20] was 0.223 h.
